Laboratory results taken from ChEMBL document CHEMBL1201862, “PubChem BioAssay data set” (2004).
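Method: 48-hour compound exposure of cells in 96-well plates, five concentrations, linear interpolation of endpoints. GI50 = concentration required for 50% inhibition of growth.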 Active and inactive are the calls of the source. Cut-off read from the data, not from the text of the source: active = GI50 up to about 1.1 µM and inactive = higher.

Assays:
Experiment in all cases: DTP human tumour cell line panel, 48 h
[1] = system: SK-MEL-2
[2] = system: NCI-H226
[3] = system: SF-268
[4] = system: HCT-15
[5] = system: MOLT-4
[6] = system: OVCAR-5
[7] = system: HCT-116
[8] = system: HOP-62
[9] = system: ACHN
[10] = system: OVCAR-3
[11] = system: A549
[12] = system: OVCAR-4
[13] = system: HOP-92
[14] = system: LOX IMVI
[15] = system: IGROV-1
[16] = system: SF-539
[17] = system: SR

Structure (SMILES)	GI50 [1]	GI50 [2]	GI50 [3]	GI50 [4] [µM]	GI50 [5]	GI50 [6]	GI50 [7]	GI50 [8]	GI50 [9]	GI50 [10]	GI50 [11]	GI50 [12]	GI50 [13]	GI50 [14]	GI50 [15]	GI50 [16]	GI50 [17]
Cc1cccc(C2=C/C(=C(\SS/C(C(=O)c3ccc(OCC(=O)O)c(Cl)c3Cl)=C3\C=C(c4cccc(C)c4)SS3)C(=O)c3ccc(OCC(=O)O)c(Cl)c3Cl)SS2)c1	19.1 µM (inactive)	12.1 µM (inactive)	10.8 µM (inactive)	12	13.6 µM (inactive)	30.4 µM (inactive)	10.2 µM (inactive)	47.1 µM (inactive)	12.4 µM (inactive)	14.2 µM (inactive)	28.8 µM (inactive)	17.2 µM (inactive)	5.45 µM (inactive)	4.69 µM (inactive)	12.1 µM (inactive)	12.4 µM (inactive)	–
O=C(Nc1cccc(O)c1)C(=O)C(C(=O)c1ccc(Cl)c(Cl)c1)C1OC(=O)c2ccccc21 (stereo unspecified)	17.5 µM (inactive)	3.46 µM (inactive)	10.4 µM (inactive)	15.5	5.01 µM (inactive)	22 µM (inactive)	25.7 µM (inactive)	–	14.6 µM (inactive)	–	37 µM (inactive)	13.3 µM (inactive)	22.5 µM (inactive)	17.3 µM (inactive)	22.2 µM (inactive)	–	4.44 µM (inactive)
N#CC(C#N)=C1NC(=O)CC(=O)N1	–	> 100 µM (inactive)	> 100 µM (inactive)	> 100	> 100 µM (inactive)	> 100 µM (inactive)	> 100 µM (inactive)	> 100 µM (inactive)	–	> 100 µM (inactive)	> 100 µM (inactive)	> 100 µM (inactive)	> 100 µM (inactive)	> 100 µM (inactive)	> 100 µM (inactive)	> 100 µM (inactive)	> 100 µM (inactive)
Oc1cccc2c1NC1=C(CCC/C1=C\c1ccccc1)C2	–	> 100 µM (inactive)	> 100 µM (inactive)	43.4	34.8 µM (inactive)	–	82.6 µM (inactive)	> 100 µM (inactive)	53.5 µM (inactive)	> 100 µM (inactive)	> 100 µM (inactive)	–	–	73.3 µM (inactive)	> 100 µM (inactive)	20.6 µM (inactive)	50.1 µM (inactive)
CCOC(=O)C(C)(C)Oc1ccc2c(-c3ccc(Cl)cc3)c(-c3ccc(Cl)cc3)c(=O)oc2c1	> 100 µM (inactive)	62.2 µM (inactive)	> 100 µM (inactive)	> 100	> 100 µM (inactive)	–	89.5 µM (inactive)	> 100 µM (inactive)	> 100 µM (inactive)	> 100 µM (inactive)	> 100 µM (inactive)	> 100 µM (inactive)	–	> 100 µM (inactive)	> 100 µM (inactive)	> 100 µM (inactive)	> 100 µM (inactive)
C[C@@H](CO)OCOCc1ccccc1	> 100 µM (inactive)	–	> 100 µM (inactive)	> 100	> 100 µM (inactive)	–	> 100 µM (inactive)	> 100 µM (inactive)	–	> 100 µM (inactive)	> 100 µM (inactive)	> 100 µM (inactive)	> 100 µM (inactive)	> 100 µM (inactive)	> 100 µM (inactive)	> 100 µM (inactive)	–
NNC(=O)N/N=C1\CNC(=O)C(=O)C1c1nc2ccccc2s1 (stereo unspecified)	> 100 µM (inactive)	> 100 µM (inactive)	> 100 µM (inactive)	> 100	–	> 100 µM (inactive)	> 100 µM (inactive)	> 100 µM (inactive)	> 100 µM (inactive)	> 100 µM (inactive)	> 100 µM (inactive)	> 100 µM (inactive)	> 100 µM (inactive)	> 100 µM (inactive)	> 100 µM (inactive)	> 100 µM (inactive)	–
COC(=O)C(=O)C(C(=O)C(=O)Nc1ccc([N+](=O)[O-])cc1)c1nc2ccccc2nc1O (stereo unspecified)	> 100 µM (inactive)	> 100 µM (inactive)	> 100 µM (inactive)	15	> 100 µM (inactive)	–	> 100 µM (inactive)	39.6 µM (inactive)	55.2 µM (inactive)	> 100 µM (inactive)	> 100 µM (inactive)	> 100 µM (inactive)	> 100 µM (inactive)	> 100 µM (inactive)	> 100 µM (inactive)	–	–
Cc1c(C(=O)C/C(=N/NC(=O)C[n+]2ccccc2)C(=O)Nc2ccccc2)[n+]([O-])c2ccccc2[n+]1[O-]	> 100 µM (inactive)	> 100 µM (inactive)	> 100 µM (inactive)	> 100	> 100 µM (inactive)	> 100 µM (inactive)	> 100 µM (inactive)	> 100 µM (inactive)	> 100 µM (inactive)	> 100 µM (inactive)	> 100 µM (inactive)	> 100 µM (inactive)	–	> 100 µM (inactive)	> 100 µM (inactive)	> 100 µM (inactive)	87.5 µM (inactive)
